# Experimental data as given in patent US20210261621A1, “Preparation of Dilipid Polymixins and Use Thereof as Antimicrobial Adjuvants” (priority 2018, published 2021).
# Like-named read-outs stand apart in the source and are kept apart here. Positions of bridges follow the written chain, without caps; N, C: chain ends. Non-standard residues stand in square brackets, D forms with d. Residues, ends and D or L forms follow the SMILES beside them. *: point of attachment. Lauroyl = CCCCCCCCCCCC(=O)*; Dab = NCC[C@H](N)C(=O)O
# Experiments:
# [1] = system: P. aeruginosa CANWARD-2011 96846; format: cell-based, Pseudomonas aeruginosa
# Method in brief: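 Overnight cultures were standardized to 0.5 McFarland, diluted 1:50 into Mueller-Hinton broth for a final inoculum near 5×10^5 CFU/mL, then mixed with two-fold serially diluted compound. Plates were incubated 18 h at 37° C. following CLSI guidelines.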
# pig erythrocytes = conditions: red cells of pig, 1 h, 512
# Procedure: The ability of the compounds to lyse eukaryotic red blood cells was measured by the amount of hemoglobin released upon incubation with pig erythrocytes, following a published protocol [30]. Briefly, fresh pig blood (generously provided by Dr. Richard Hodges, Director of Animal Care and Veterinary Services of the University of Manitoba) drawn from a pig's antecubital vein was centrifuged at 1000 g for 5 min at 4° C., washed with phosphate-buffered saline (PBS) three times, and re-suspended in the same buffer, consecutively. Compounds at study were 2-fold serially diluted in PBS on a 96-well plate and mixed with equal volumes of erythrocyte solution. Post 1 h incubation at 37° C., the intact cells were pelleted by centrifugation at 1000 g for 5 min at 4° C. Resulting supernatant was then transferred to a new 96-well plate. The hemoglobin released was then measured via an EMax Plus microplate reader (Molecular Devices, USA) at 570 nm wavelength. Erythrocytes in PBS with or without 0.1% Triton X-100 were used as positive or negative control, respectively.
# P. aeruginosa PAO1 = system: P. aeruginosa PAO1; design: MICDrug / MICDrug in combo / MIC of adjuvant in combo: unit not given beside the values
smiles,measurement,setting,value
"CCCCCCCCCCCC(=O)NCC[C@H](NC(=O)CCCCCCCCCCC)C(=O)N[C@H](C(=O)N[C@@H](CCN)C(=O)N[C@H]1CCNC(=O)[C@H]([C@@H](C)O)NC(=O)[C@H](CCN)NC(=O)[C@H](CCN)NC(=O)[C@H](CC(C)C)NC(=O)[C@@H](Cc2ccccc2)NC(=O)[C@H](CCN)NC1=O)[C@@H](C)O [Compound 3, Didodecanoic Acid (Di-C12) Polymyxin] (Lauroyl-[Dab](Lauroyl)T[Dab][Dab][Dab][dF]L[Dab][Dab]T; lactam 4-C)",MIC,[1],>128 mg/L
same,% Hemolysis at 512 μg/mL of polymyxin,pig erythrocytes,49.7 ± 3.3%
same,"MIC of adjuvant alone (MIC1, MIC2, MIC3, MIC4, MIC5, MICPMBN)","P. aeruginosa PAO1; adjuvant alone, one value per checkerboard, in µg/mL",32
same,Interpretation,P. aeruginosa PAO1; combination with Aztreonam,"Additive (An FIC index of ≤0.5, 0.5<x≤4, or >4 denotes for synergistic, additive or antagonistic interaction, respectively)"
same,Interpretation,P. aeruginosa PAO1; combination with Ceftazidime,"Additive (An FIC index of ≤0.5, 0.5<x≤4, or >4 denotes for synergistic, additive or antagonistic interaction, respectively)"
same,Interpretation,P. aeruginosa PAO1; combination with Chloramphenicol,"Additive (An FIC index of ≤0.5, 0.5<x≤4, or >4 denotes for synergistic, additive or antagonistic interaction, respectively)"
same,Interpretation,P. aeruginosa PAO1; combination with Ciprofloxacin,"Additive (An FIC index of ≤0.5, 0.5<x≤4, or >4 denotes for synergistic, additive or antagonistic interaction, respectively)"
same,Interpretation,P. aeruginosa PAO1; combination with Clindamycin,"Additive (An FIC index of ≤0.5, 0.5<x≤4, or >4 denotes for synergistic, additive or antagonistic interaction, respectively)"
same,Interpretation,P. aeruginosa PAO1; combination with Doripenem,"Additive (An FIC index of ≤0.5, 0.5<x≤4, or >4 denotes for synergistic, additive or antagonistic interaction, respectively)"
same,Interpretation,P. aeruginosa PAO1; combination with Doxycycline,"Additive (An FIC index of ≤0.5, 0.5<x≤4, or >4 denotes for synergistic, additive or antagonistic interaction, respectively)"
same,Interpretation,P. aeruginosa PAO1; combination with Fosfomycin,"Additive (An FIC index of ≤0.5, 0.5<x≤4, or >4 denotes for synergistic, additive or antagonistic interaction, respectively)"
same,Interpretation,P. aeruginosa PAO1; combination with Gentamicin,"Additive (An FIC index of ≤0.5, 0.5<x≤4, or >4 denotes for synergistic, additive or antagonistic interaction, respectively)"
same,Interpretation,P. aeruginosa PAO1; combination with Linezolid,"Additive (An FIC index of ≤0.5, 0.5<x≤4, or >4 denotes for synergistic, additive or antagonistic interaction, respectively)"
same,Interpretation,P. aeruginosa PAO1; combination with Meropenem,"Additive (An FIC index of ≤0.5, 0.5<x≤4, or >4 denotes for synergistic, additive or antagonistic interaction, respectively)"
same,Interpretation,P. aeruginosa PAO1; combination with Minocycline,"Additive (An FIC index of ≤0.5, 0.5<x≤4, or >4 denotes for synergistic, additive or antagonistic interaction, respectively)"
same,Interpretation,P. aeruginosa PAO1; combination with Moxifloxacin,"Additive (An FIC index of ≤0.5, 0.5<x≤4, or >4 denotes for synergistic, additive or antagonistic interaction, respectively)"
same,Interpretation,P. aeruginosa PAO1; combination with Novobiocin,"Additive (An FIC index of ≤0.5, 0.5<x≤4, or >4 denotes for synergistic, additive or antagonistic interaction, respectively)"
same,Interpretation,P. aeruginosa PAO1; combination with Piperacillin,"Additive (An FIC index of ≤0.5, 0.5<x≤4, or >4 denotes for synergistic, additive or antagonistic interaction, respectively)"
same,Interpretation,P. aeruginosa PAO1; combination with Pleuromutilin,"Additive (An FIC index of ≤0.5, 0.5<x≤4, or >4 denotes for synergistic, additive or antagonistic interaction, respectively)"
same,Interpretation,P. aeruginosa PAO1; combination with Rifampicin,"Additive (An FIC index of ≤0.5, 0.5<x≤4, or >4 denotes for synergistic, additive or antagonistic interaction, respectively)"
same,Interpretation,P. aeruginosa PAO1; combination with Streptomycin,"Additive (An FIC index of ≤0.5, 0.5<x≤4, or >4 denotes for synergistic, additive or antagonistic interaction, respectively)"
same,Interpretation,P. aeruginosa PAO1; combination with Tobramycin,"Additive (An FIC index of ≤0.5, 0.5<x≤4, or >4 denotes for synergistic, additive or antagonistic interaction, respectively)"
same,Interpretation,P. aeruginosa PAO1; combination with Trimethoprim,"Additive (An FIC index of ≤0.5, 0.5<x≤4, or >4 denotes for synergistic, additive or antagonistic interaction, respectively)"
same,Interpretation,P. aeruginosa PAO1; combination with Vancomycin,"Additive (An FIC index of ≤0.5, 0.5<x≤4, or >4 denotes for synergistic, additive or antagonistic interaction, respectively)"
same,MIC of adjuvant in combo,P. aeruginosa PAO1; in combination with Aztreonam,(16)
same,MIC of adjuvant in combo,P. aeruginosa PAO1; in combination with Ceftazidime,(16)
same,MIC of adjuvant in combo,P. aeruginosa PAO1; in combination with Chloramphenicol,(16)
same,MIC of adjuvant in combo,P. aeruginosa PAO1; in combination with Ciprofloxacin,(0.25)
same,MIC of adjuvant in combo,P. aeruginosa PAO1; in combination with Clindamycin,(16)
same,MIC of adjuvant in combo,P. aeruginosa PAO1; in combination with Doripenem,(16)
same,MIC of adjuvant in combo,P. aeruginosa PAO1; in combination with Doxycycline,(16)
same,MIC of adjuvant in combo,P. aeruginosa PAO1; in combination with Fosfomycin,(8)
same,MIC of adjuvant in combo,P. aeruginosa PAO1; in combination with Gentamicin,(0.25)
same,MIC of adjuvant in combo,P. aeruginosa PAO1; in combination with Linezolid,(32)
same,MIC of adjuvant in combo,P. aeruginosa PAO1; in combination with Meropenem,(16)
same,MIC of adjuvant in combo,P. aeruginosa PAO1; in combination with Minocycline,(16)
same,MIC of adjuvant in combo,P. aeruginosa PAO1; in combination with Moxifloxacin,(16)
same,MIC of adjuvant in combo,P. aeruginosa PAO1; in combination with Novobiocin,(16)
same,MIC of adjuvant in combo,P. aeruginosa PAO1; in combination with Piperacillin,(16)
same,MIC of adjuvant in combo,P. aeruginosa PAO1; in combination with Pleuromutilin,(16)
same,MIC of adjuvant in combo,P. aeruginosa PAO1; in combination with Rifampicin,(8)
same,MIC of adjuvant in combo,P. aeruginosa PAO1; in combination with Streptomycin,(0.25)
same,MIC of adjuvant in combo,P. aeruginosa PAO1; in combination with Tobramycin,(0.25)
same,MIC of adjuvant in combo,P. aeruginosa PAO1; in combination with Trimethoprim,(16)
same,MIC of adjuvant in combo,P. aeruginosa PAO1; in combination with Vancomycin,(16)
same,adjuvant activity (potentiation of the panel of 21 antibiotics),P. aeruginosa PAO1; result in words,did not enhance the activity of any antibiotics
